Laboratory results: patent US20250197425A1, “2,6,9-TRISUBSTITUTED PURINES” (ASTRAZENECA AB, priority 2022, published 2025)
In brackets after ≈: the same amount, converted by molar mass.

Legend:
CDK2:CCNE1 = CDK2:CCNE1 (Homo sapiens (Human), UniProt P24941); assay: NanoBRET assay in MCF-7 cells, CDK2; type: cell-based; conditions: transfected MCF-7 cells, 2 hours, n = 1 or average
Method: Compounds were tested in breast cancer cell line MCF-7 to assess inhibition of CDK1, CDK2, and CDK4 activity. […] The next day media were evacuated from the wells using the Bluewasher centrifugal plate washer (Bluecatbio) and 10 μL/well phenol red free OptiMEM was then added using a Multidrop Combi. […] Immediately after compound addition, a Tecan HP300 dispensor was used to dispense the relevant NanoBRET™ tracer to the CDK1 wells (12.5 nl, 400 μM, NanoBRET™ TE Tracer K-9), the CDK2 wells (12.5 nl, 200 μM, NanoBRET™ TE Tracer K-9), and the CDK4 wells (8 nl, 100 μM, NanoBRET™ TE Tracer K-7) and the plates were incubated for 2 hours at 37° C. and 5% CO2. […] The plates were incubated in subdued lighting for 10 minutes and then read on a Pherastar FS plate reader (BMG Technologies) using a NanoBRET™ filter module (460±80 nm/610 nm-LP). The ratio values were normalized to controls and the IC50 values of test compounds determined using Genedata Screener software.

CDK1:CCNB1 = CDK1:CCNB1 (Homo sapiens (Human), UniProt P06493); assay: NanoBRET assay in MCF-7 cells, CDK1; type: cell-based; conditions: NanoBRET, transfected MCF-7 cells, 2 hours; n = 1 or average; read-out: CDK1 IC50
Method: (§1) Compounds were tested in breast cancer cell line MCF-7 to assess inhibition of CDK1, CDK2, and CDK4 activity. MCF-7 cells transiently transfected with CDK1:CCNB1, CDK2:CCNE1, or CDK4:CCND1 were harvested at a density of 1E5 cells/mL in complete media, seeded 20 μL/well into 384-well Greiner 784080 plates using a Multidrop Combi, and incubated overnight at 37° C. and 5% CO2. The next day media were evacuated from the wells using the Bluewasher centrifugal plate washer (Bluecatbio) and 10 μL/well phenol red free OptiMEM was then added using a Multidrop Combi. […] Immediately after compound addition, a Tecan HP300 dispensor was used to dispense the relevant NanoBRET™ tracer to the CDK1 wells (12.5 nl, 400 μM, NanoBRET™ TE Tracer K-9), the CDK2 wells (12.5 nl, 200 μM, NanoBRET™ TE Tracer K-9), and the CDK4 wells (8 nl, 100 μM, NanoBRET™ TE Tracer K-7) and the plates were incubated for 2 hours at 37° C. and 5% CO2. The plates were allowed to cool for 10 minutes at room temperature and 5 μL/well of TE Nano-Glo®Substrate/Inhibitor at 2.4 μM and 1:500 respectively (N2162 Promega) was added. The plates were incubated in subdued lighting for 10 minutes and then read on a Pherastar FS plate reader (BMG Technologies) using a NanoBRET™ filter module (460±80 nm/610 nm-LP). The ratio values were normalized to controls and the IC50 values of test compounds determined using Genedata Screener software.

CDK4:CCND1 = CDK4:CCND1 (Homo sapiens (Human), UniProt P11802); assay: NanoBRET assay in MCF-7 cells, CDK4; type: cell-based; conditions: NanoBRET, transfected MCF-7 cells, 2 hours; n = 1 or average; read-out: CDK4 IC50
Method: as §1

[1] = test system: NPM phosphorylation (Thr199, CDK2-cyclin E complex); assay: NPM phosphorylation imaging assay in MCF-7 cells; type: cell-based; conditions: Homo sapiens, 4N DNA cells
Method: Compounds were tested to assess the effects of CDK2 inhibition in a cellular context. […] During the cell cycle, the CDK2-cyclin E complex phosphorylates NPM at Thr199 which is a prerequisite step for initiation of centrosome duplication.
The cells were fixed by addition of 40 μL/well of 8% paraformaldehyde and incubated at room temperature for 10 minutes. The plates were washed three times with 50 μL/well PBS using a Biotek EL406 plate washer and then permeabilized for 10 minutes at room temperature in 0.3% Triton X100 in PBS. After washing as before, the plates were blocked using 30 μL/well of 2% BSA (w/v) in PBS-T for at least 30 minutes at room temperature. […] Cells containing 4N DNA were selected using the Hoechst staining. Phospho-NPM levels were normalized to controls and the IC50 values of test compounds determined using Genedata Screener software.

[2] = test system: POLR2A Ser2 phosphorylation (CDK9); assay: POLR2A Ser2 phosphorylation imaging assay in MCF-7 cells; type: cell-based; conditions: Homo sapiens, MCF7, 2 h, MCF-7 cells, 2 hours; read-out: POLR2A Ser2 phosphorylation IC50
Method: Compounds were tested to assess their effect on CDK9 activity in a cellular context. […] During the cell cycle, CDK9 is a component of a multiprotein complex that phosphorylates POLR2A Ser2 which results in transcription elongation.
[…] were fixed by addition of 40 μL/well of 8% paraformaldehyde and incubated for 10 minutes at room temperature. The plates were washed three times with 50 μL/well PBS using a Biotek EL406 plate washer and then permeabilized for 10 minutes at room temperature in 0.3% Triton X100 in PBS. After washing as before, the plates were blocked using 30 μL/well of 2% BSA (w/v) in PBS-T for over 30 minutes at room temperature. […] After washing in PBS as before, leaving each well in 40 μL of PBS, the plates were sealed and imaged on a Cell Insight imaging system (Thermo) with a 10× objective and 2 fields of view per well. POLR2A Ser2levels were normalized to controls and the IC50 values of test compounds determined using Genedata Screener software.

MCF-7 cells = assay: Cellular proliferation EdU assay, MCF-7; type: cell-based; conditions: Homo sapiens, MCF7, 48 h, EdU assay, two days; read-out: MCF-7 IC50
Method: (§2) Compounds were tested to assess inhibition of cellular proliferation in the breast cancer cell line MCF-7 and the CCNE1-amplified ovarian cell line OVCAR3.
(§3) MCF-7 and OVCAR3 cells in RPMI supplemented with 10% Fetal bovine serum were seeded into 384-well plates (Greiner, Kremsmunster, Austria; 781091), 30 μL/well, using a WellMate. The MCF7 and OVCAR3 cells were seeded at 800 and 1200 cells/well, respectively. Test compounds were added to the wells using an Echo 555 liquid handler and the plates were placed in incubator maintained at 37° C. and 5% CO2 and incubated for two days. On Day 2, an EdU assay was performed following the manufacturer's protocol (Thermo Fisher, C10351). The cells were read on an Acumen eX3 instrument. The IC50 values of test compounds were determined in Genedata by assessing the ratio of signal intensity at 488 nm to the area of signal at 405 nm.

OVCAR3 cells = assay: Cellular proliferation EdU assay, OVCAR3; type: cell-based, human; conditions: Homo sapiens, OVCAR-3, 48 h, EdU assay, two days; read-out: OVCAR3 IC50
Method: as §2, §3

[3] = CLint assessment in human liver microsomes (HLM); type: in vitro ADME; conditions: 1 μM
Method: After a preincubation with NADPH for 8 minutes, reactions were initiated through the addition of the test compound (final volume 250 μl) and incubated at 37° C. in a water bath for 30 minutes. […] Samples were shaken at 800 rpm for 2 minutes and centrifuged at 4000 rpm for 20 minutes at 4° C. to pellet precipitated protein. The supernatant fraction was diluted 1:5 with deionized water, shaken at 1000 rpm for 2 minutes, and further diluted 1:1 with deionized water. Samples were analyzed by LC-MS/MS. The t1/2 and the CLint of the compounds incubated in the LM, HLM, and HμREL assays as described above were calculated according to the following equations: […] where V (μl/×10^6 cells or mg protein) is the incubation volume (μl) divided by the number of cells (×10^6) or microsomal protein content (mg) in the incubation.

[4] = Aqueous thermodynamic solubility, shake-flask; type: physicochemical; conditions: aqueous phosphate buffer, 25 °C, pH 7.4, aqueous buffer, thermodynamic from solid, phosphate buffer 0.1 M, pH 7.4, 24 hours
Method: The DMSO was evaporated and the dried compounds were equilibrated in glass vials in aqueous phosphate buffer (0.1 M, pH 7.4) for 24 hours at 25° C. under constant stirring. The portion with the dissolved compound was then separated from the remainder through a double centrifugation with a tip wash in between to ensure that no residues of the dried compound were interfering. The solutions were diluted with purified water before quantification using UPLC/MS/MS.

Sequence of CDK4:CCND1 (P11802 whole entry): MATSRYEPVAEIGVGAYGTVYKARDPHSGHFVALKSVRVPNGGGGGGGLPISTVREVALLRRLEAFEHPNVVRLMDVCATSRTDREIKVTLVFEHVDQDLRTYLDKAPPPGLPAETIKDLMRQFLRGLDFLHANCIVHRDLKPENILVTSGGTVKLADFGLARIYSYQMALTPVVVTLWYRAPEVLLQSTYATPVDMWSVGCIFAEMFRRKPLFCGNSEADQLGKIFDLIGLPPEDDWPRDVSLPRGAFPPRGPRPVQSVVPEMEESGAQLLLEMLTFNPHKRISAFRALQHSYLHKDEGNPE
Sequence of CDK4:CCND1 (P24385 whole entry partner): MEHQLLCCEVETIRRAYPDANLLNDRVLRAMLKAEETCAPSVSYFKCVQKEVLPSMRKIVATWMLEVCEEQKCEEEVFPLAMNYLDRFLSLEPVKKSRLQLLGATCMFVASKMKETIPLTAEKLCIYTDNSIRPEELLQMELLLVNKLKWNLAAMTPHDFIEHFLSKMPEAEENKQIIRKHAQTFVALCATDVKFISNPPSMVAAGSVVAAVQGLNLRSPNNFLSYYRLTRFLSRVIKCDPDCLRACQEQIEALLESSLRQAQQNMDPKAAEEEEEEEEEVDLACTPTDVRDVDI
Sequence of CDK1:CCNB1 (P06493 whole entry): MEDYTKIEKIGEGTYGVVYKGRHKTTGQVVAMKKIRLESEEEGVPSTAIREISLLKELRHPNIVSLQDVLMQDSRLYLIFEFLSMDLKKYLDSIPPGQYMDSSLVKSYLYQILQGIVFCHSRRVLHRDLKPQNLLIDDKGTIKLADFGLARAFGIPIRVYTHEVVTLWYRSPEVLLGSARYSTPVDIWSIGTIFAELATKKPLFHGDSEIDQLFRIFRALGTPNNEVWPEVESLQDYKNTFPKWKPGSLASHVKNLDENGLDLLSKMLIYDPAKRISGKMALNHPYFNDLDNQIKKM
Sequence of CDK1:CCNB1 (P14635 whole entry partner): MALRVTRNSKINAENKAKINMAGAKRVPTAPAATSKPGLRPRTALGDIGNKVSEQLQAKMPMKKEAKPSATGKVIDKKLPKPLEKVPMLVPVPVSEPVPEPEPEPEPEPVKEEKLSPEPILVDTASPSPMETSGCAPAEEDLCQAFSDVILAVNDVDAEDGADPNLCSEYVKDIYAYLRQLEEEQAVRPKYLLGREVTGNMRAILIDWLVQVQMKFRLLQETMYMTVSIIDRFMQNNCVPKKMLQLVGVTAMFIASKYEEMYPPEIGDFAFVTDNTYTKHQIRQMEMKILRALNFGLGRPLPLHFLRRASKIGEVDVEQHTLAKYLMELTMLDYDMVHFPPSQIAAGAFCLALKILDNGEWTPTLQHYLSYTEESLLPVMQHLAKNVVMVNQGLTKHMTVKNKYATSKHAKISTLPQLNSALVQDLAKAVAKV

SMILES: CC[C@H](Nc1nc(N[C@@H]2CN(S(=O)(=O)c3ncc[nH]3)C[C@H]2F)c2ncn(C)c2n1)[C@@H](C)O (relative stereo) [Example 56, (2R,3S)-3-((6-(((3R*,4R*)-1-((1H-imidazol-2-yl)sulfonyl)-4-fluoropyrrolidin-3-yl)amino)-9-methyl-9H-purin-2-yl)amino)pentan-2-ol]
- IC50 (CDK2:CCNE1): 69 nM
- IC50 (CDK1:CCNB1): 1500 nM
- IC50 (CDK4:CCND1): 22000 nM
- IC50 ([1]; MCF7, 2 h): 299 nM
- IC50 [2]: 23900 nM
- IC50 (MCF-7 cells): 1180 nM
- IC50 (OVCAR3 cells): 519 nM
- HLM CLint [3]: 39.8 µL/min/mg
- solubility at 24 h [4]: > 1000 µM

SMILES: CCn1cnc2c(N[C@H]3CCN(S(=O)(=O)NC)C3)nc(N[C@@H](CC(F)(F)F)[C@@H](C)O)nc21 (relative stereo) [Example 21, (S)-3-((9-ethyl-2-(((3S*,4R*)-1,1,1-trifluoro-4-hydroxypentan-3-yl)-amino)-9H-purin-6-yl)amino)-N-methylpyrrolidine-1-sulfonamide]
- IC50 (CDK2:CCNE1): 49 nM
- IC50 (CDK1:CCNB1): 3830 nM
- IC50 (CDK4:CCND1): > 29700 nM
- IC50 ([1]; MCF7, 2 hours): 326 nM
- IC50 [2]: > 30000 nM
- IC50 (MCF-7 cells): 1450 nM
- IC50 (OVCAR3 cells): 578 nM
- HLM CLint [3]: 34.1 µL/min/mg
- solubility at 24 h [4]: 606 µM (≈ 291 µg/mL)

SMILES: CC[C@H](CO)Nc1nc(N[C@H]2CCN(S(C)(=O)=O)C2)c2ncn(CC)c2n1 [Example 38, (R)-2-((9-ethyl-6-(((S)-1-(methylsulfonyl)pyrrolidin-3-yl)amino)-9H-purin-2-yl)amino)butan-1-ol]
- IC50 (CDK2:CCNE1): 21 nM
- IC50 (CDK1:CCNB1): 1040 nM
- IC50 (CDK4:CCND1): 6000 nM
- IC50 ([1]; MCF7, 2 hours): 392 nM
- IC50 [2]: > 30000 nM
- IC50 (MCF-7 cells): 2310 nM
- IC50 (OVCAR3 cells): 782 nM

SMILES: C[C@H](Nc1nc(N[C@@H]2CN(S(=O)(=O)c3ncc[nH]3)C[C@H]2F)c2ncn(C(F)F)c2n1)[C@@H](O)C(F)(F)F (relative stereo) [Example 57, (2R,3S)-3-((6-(((3R*,4R*)-1-((1H-imidazol-2-yl)sulfonyl)-4-fluoropyrrolidin-3-yl)amino)-9-(difluoromethyl)-9H-purin-2-yl)amino)-1,1,1-trifluorobutan-2-ol]
- IC50 (CDK2:CCNE1): 11 nM
- IC50 (CDK1:CCNB1): 186 nM
- IC50 (CDK4:CCND1): 1500 nM
- IC50 ([1]; MCF7, 2 h): 55 nM
- IC50 [2]: 4400 nM
- IC50 (MCF-7 cells): 200 nM
- IC50 (OVCAR3 cells): 155 nM
- HLM CLint [3]: 33.5 µL/min/mg
- solubility at 24 h [4]: 884 µM (≈ 480 µg/mL)

SMILES: CC[C@H](Nc1nc(N[C@H]2CCN(S(=O)(=O)c3cnn(C)c3)C2)c2ncn(C(C)C)c2n1)[C@@H](C)O [Example 31, (2R,3S)-3-((9-isopropyl-6-(((S)-1-((1-methyl-1H-pyrazol-4-yl)sulfonyl)pyrrolidin-3-yl)amino)-9H-purin-2-yl)amino)pentan-2-ol]
- IC50 (CDK2:CCNE1): 39 nM
- IC50 (CDK1:CCNB1): 6290 nM
- IC50 (CDK4:CCND1): > 29700 nM
- IC50 ([1]; MCF7, 2 hours): 1050 nM
- IC50 [2]: > 30000 nM
- IC50 (MCF-7 cells): 3160 nM
- IC50 (OVCAR3 cells): 964 nM
- HLM CLint [3]: 154 µL/min/mg
- solubility at 24 h [4]: > 1000 µM

SMILES: CC(C)[C@H](CO)Nc1nc(N[C@@H]2CN(S(C)(=O)=O)C[C@H]2C)c2ncn(C(C)C)c2n1 [Example 36, (R)-2-((9-isopropyl-6-(((3S,4R)-4-methyl-1-(methylsulfonyl)-pyrrolidin-3-yl)amino)-9H-purin-2-yl)amino)-3-methylbutan-1-ol]
- IC50 (CDK2:CCNE1): 50 nM
- IC50 (CDK1:CCNB1): 2020 nM
- IC50 (CDK4:CCND1): > 29700 nM
- IC50 ([1]; MCF7, 2 hours): 1230 nM
- IC50 [2]: > 30000 nM
- IC50 (MCF-7 cells): 3010 nM
- IC50 (OVCAR3 cells): 1250 nM
- HLM CLint [3]: >300 µL/min/mg
- solubility at 24 h [4]: 11.1 µM (≈ 4.88 µg/mL)

SMILES: CC[C@H](Nc1nc(N[C@H]2CCN(S(=O)(=O)NC)C2)c2ncn(CF)c2n1)[C@@H](C)O [Example 54, (S)-3-((9-(fluoromethyl)-2-(((2R,3S)-2-hydroxypentan-3-yl)amino)-9H-purin-6-yl)amino)-N-methylpyrrolidine-1-sulfonamide]
- IC50 ([1]; MCF7, 2 hours): 334 nM
- IC50 [2]: > 30000 nM
- IC50 (MCF-7 cells): 1370 nM
- IC50 (OVCAR3 cells): 756 nM
- solubility at 24 h [4]: 593 µM (≈ 255 µg/mL)

SMILES: CC(C)[C@H](CO)Nc1nc(N[C@@H]2CN(S(C)(=O)=O)C[C@H]2F)c2ncn(C(C)C)c2n1 [Example 33, (R)-2-((6-(((3R,4R)-4-fluoro-1-(methylsulfonyl)pyrrolidin-3-yl)amino)-9-isopropyl-9H-purin-2-yl)amino)-3-methylbutan-1-ol]
- IC50 (CDK2:CCNE1): 26 nM
- IC50 (CDK1:CCNB1): 5750 nM
- IC50 (CDK4:CCND1): 8100 nM
- IC50 ([1]; MCF7, 2 hours): 752 nM
- IC50 [2]: > 30000 nM
- IC50 (MCF-7 cells): 2970 nM
- IC50 (OVCAR3 cells): 880 nM
